# Results as given in patent publication US9493430B2, “Biaryl- or heterocyclic biaryl-substituted cyclohexene derivative compounds as CETP inhibitors” (CHONG KUN DANG PHARMACEUTICAL CORP., priority 2013, dated 2016).
# Target: CETP (Homo sapiens (Human), UniProt P11597)
# Assay: Test for inhibition of cholesteryl ester transfer (in vitro)
# Type: biochemical
# Conditions: human plasma as CETP source, LDL from healthy persons as acceptor, rHDL-agarose donor, 37° C.
# From the text: Test for Inhibition of Cholesteryl Ester Transfer (In Vitro)
# 1. Construction of Cholesteryl Ester Donor
# To construct a cholesteryl ester donor to be used in the test, radiolabeled recombinant HDL containing […] (GE healthcare, TRK886, 3.5 μCi/mg of apoA-1) and apoA-1 was synthesized. Then, rHDL-agarose having the recombinant HDL immobilized thereon by CNBr-activated Sepharose 4B (Amersham Biosciences, Sweden) resin was used in the test.
# 2. Cholesteryl Ester Transfer Test
# As a protein source for cholesteryl ester transfer, plasma from healthy persons was used, and as a cholesteryl ester receptor, LDL from healthy persons was used. Samples were treated with each test compound to final concentrations of 16, 80, 400, 2000 and 10000 nM and analyzed in duplicate. For the cholesteryl ester transfer test, 20 μl of plasma, 50 μl of LDL (0.25 mg/ml) and 50 μl of rHDL-agarose (0.25 mg/ml) were added, and a solution containing a test compound was added, followed by reaction at 37° C. Then, centrifugation was performed at 4° C. for 3 minutes to stop the reaction, and 150 μl of the supernatant was taken and transferred to a 96-well plate for radioactivity measurement, and the radioactivity of the plate was measured with a beta-ray detector.
# 3. Statistical Processing
# The ratio of [^3H]-cholesteryl oleate from HDL to LDL was calculated and used as a result value, and from the result value, IC50 value was calculated using GraphPad Prism 5.0.
# Sequence of CETP (P11597 18-493): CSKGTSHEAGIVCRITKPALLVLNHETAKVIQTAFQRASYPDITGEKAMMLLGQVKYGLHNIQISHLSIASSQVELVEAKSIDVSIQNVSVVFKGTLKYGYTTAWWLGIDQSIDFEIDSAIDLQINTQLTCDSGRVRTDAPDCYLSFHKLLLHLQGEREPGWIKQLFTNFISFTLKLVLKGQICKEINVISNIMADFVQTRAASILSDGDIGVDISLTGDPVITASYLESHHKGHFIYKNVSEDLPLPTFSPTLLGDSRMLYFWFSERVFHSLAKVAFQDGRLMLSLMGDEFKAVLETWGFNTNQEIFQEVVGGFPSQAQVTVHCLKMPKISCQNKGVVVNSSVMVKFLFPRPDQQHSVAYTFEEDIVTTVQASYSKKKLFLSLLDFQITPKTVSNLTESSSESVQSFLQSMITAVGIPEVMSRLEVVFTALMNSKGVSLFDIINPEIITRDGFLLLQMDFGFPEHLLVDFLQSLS
row,Structure (SMILES),IC50
1,"C[C@H]1[C@@H](c2cc(C(F)(F)F)cc(C(F)(F)F)c2)OC(=O)N1CC1=C(c2cc(-c3ccc(C(=O)O)cc3F)cc(C(F)(F)F)c2)CCC(C)(C)C1 [Compound 748, 3′-(2-(((4S,5R)-5-(3,5-bis(trifluoromethyl)phenyl)-4-methyl-2-oxooxazolidin-3-yl)methyl)-4,4-dimethylcyclohex-1-enyl)-2-fluoro-5′-(trifluoromethyl)biphenyl-4-carboxylic acid]",15.9 nM
2,"COc1ncc(-c2ccc(C(=O)O)cc2C(C)C)cc1C1=C(CN2C(=O)O[C@H](c3cc(C(F)(F)F)cc(C(F)(F)F)c3)[C@@H]2C)CC(C)(C)CC1 [Compound 578, 4-(3-(2-(((4S,5R)-5-(3,5-bis(trifluoromethyl)phenyl)-4-methyl-2-oxooxazolidin-3-yl)methyl)-4,4-dimethylcyclohex-1-enyl)-2-methoxypyridin-5-yl)-3-isopropylbenzoic acid]",12.6 nM
3,"COc1ccc(-c2ccc(C(=O)O)cc2C(F)(F)F)nc1C1=C(CN2C(=O)O[C@H](c3cc(C(F)(F)F)cc(C(F)(F)F)c3)[C@@H]2C)CC(C)(C)CC1 [Compound 764, 4-(2-(2-(((4S,5R)-5-(3,5-bis(trifluoromethyl)phenyl)-4-methyl-2-oxooxazolidin-3-yl)methyl)-4,4-dimethylcyclohex-1-enyl)-3-methoxypyridin-6-yl)-3-(trifluoromethyl)benzoic acid]",8.9 nM
4,"COc1cc(C(F)(F)F)c(-c2ccc(C(=O)O)c(F)c2)cc1C1=C(CN2C(=O)O[C@H](c3cc(C(F)(F)F)cc(C(F)(F)F)c3)[C@@H]2C)CC(C)(C)CC1 [Compound 614, 5′-(2-(((4S,5R)-5-(3,5-bis(trifluoromethyl)phenyl)-4-methyl-2-oxooxazolidin-3-yl)methyl)-4,4-dimethylcyclohex-1-enyl)-3-fluoro-4′-methoxy-2′-(trifluoromethyl)biphenyl-4-carboxylic acid]",27 nM
5,"COc1cc(C(F)(F)F)c(-c2ccc(C(=O)O)cc2)cc1C1=C(CN2C(=O)O[C@H](c3cc(C(F)(F)F)cc(C(F)(F)F)c3)[C@@H]2C)CC(C)(C)CC1 [Compound 612, 5′-(2-(((4S,5R)-5-(3,5-bis(trifluoromethyl)phenyl)-4-methyl-2-oxooxazolidin-3-yl)methyl)-4,4-dimethylcyclohex-1-enyl)-4′-methoxy-2′-(trifluoromethyl)biphenyl-4-carboxylic acid]",6.9 nM
6,"COc1cc(C(F)(F)F)c(-c2ccc(C(=O)O)cc2C)cc1C1=C(CN2C(=O)O[C@H](c3cc(C(F)(F)F)cc(C(F)(F)F)c3)[C@@H]2C)CC(C)(C)CC1 [Compound 616, 5′-(2-(((4S,5R)-5-(3,5-bis(trifluoromethyl)phenyl)-4-methyl-2-oxooxazolidin-3-yl)methyl)-4,4-dimethylcyclohex-1-enyl)-4′-methoxy-2-methyl-2′-(trifluoromethyl)biphenyl-4-carboxylic acid]",7.6 nM
7,"COC(=O)c1cccc(-c2ccc(OC)c(C3=C(CN4C(=O)O[C@H](c5cc(C(F)(F)F)cc(C(F)(F)F)c5)[C@@H]4C)CC(C)(C)CC3)c2)c1 [Compound 567, methyl 3′-(2-(((4S,5R)-5-(3,5-bis(trifluoromethyl)phenyl)-4-methyl-2-oxooxazolidin-3-yl)methyl)-4,4-dimethylcyclohex-1-enyl)-4′-methoxybiphenyl-3-carboxylate]",56.6 nM
8,"COc1ncc(-c2ccc(C(=O)O)c(F)c2F)cc1C1=C(CN2C(=O)O[C@H](c3cc(C(F)(F)F)cc(C(F)(F)F)c3)[C@@H]2C)CC(C)(C)CC1 [Compound 596, 4-(3-(2-(((4S,5R)-5-(3,5-bis(trifluoromethyl)phenyl)-4-methyl-2-oxooxazolidin-3-yl)methyl)-4,4-dimethylcyclohex-1-enyl)-2-methoxypyridin-5-yl)-2,3-difluorobenzoic acid]",17.9 nM
9,"COC(=O)c1ccc(-c2cnc(OC)c(C3=C(CN4C(=O)O[C@H](c5cc(C(F)(F)F)cc(C(F)(F)F)c5)[C@@H]4C)CC(C)(C)CC3)c2)c(C)c1 [Compound 555, methyl 4-(3-(2-(((4S,5R)-5-(3,5-bis(trifluoromethyl)phenyl)-4-methyl-2-oxooxazolidin-3-yl)methyl)-4,4-dimethylcyclohex-1-enyl)-2-methoxypyridin-5-yl)-3-methylbenzoate]",28.4 nM
10,"COC(=O)c1ccc(-c2cc(C3=C(CN4C(=O)O[C@H](c5cc(C(F)(F)F)cc(C(F)(F)F)c5)[C@@H]4C)CC(C)(C)CC3)c(OC)cc2F)c(C)c1 [Compound 572, methyl 5′-(2-(((4S,5R)-5-(3,5-bis(trifluoromethyl)phenyl)-4-methyl-2-oxooxazolidin-3-yl)methyl)-4,4-dimethylcyclohex-1-enyl)-2′-fluoro-4′-methoxy-2-methylbiphenyl-4-carboxylate]",15 nM

# More lines, now with the values ahead:
row,IC50,Structure (SMILES)
1,8.4 nM,"COc1ccc(-c2ccc(C(=O)O)c(F)c2F)cc1C1=C(CN2C(=O)O[C@H](c3cc(C(F)(F)F)cc(C(F)(F)F)c3)[C@@H]2C)CC(C)(C)CC1 [Compound 592, 3′-(2-(((4S,5R)-5-(3,5-bis(trifluoromethyl)phenyl)-4-methyl-2-oxooxazolidin-3-yl)methyl)-4,4-dimethylcyclohex-1-enyl)-2,3-difluoro-4′-methoxybiphenyl-4-carboxylic acid]"
2,15.9 nM,"Cc1cc(C(=O)O)ccc1-c1cc(C2=C(CN3C(=O)O[C@H](c4cc(C(F)(F)F)cc(C(F)(F)F)c4)[C@@H]3C)CC(C)(C)CC2)ccc1C [Compound 677, 5′-(2-(((4S,5R)-5-(3,5-bis(trifluoromethyl)phenyl)-4-methyl-2-oxooxazolidin-3-yl)methyl)-4,4-dimethylcyclohex-1-enyl)-2,2′-dimethylbiphenyl-4-carboxylic acid]"
3,50.2 nM,"COc1ccc(-c2ccc(C(=O)O)cc2OC)cc1C1=C(CN2C(=O)O[C@H](c3cc(C(F)(F)F)cc(C(F)(F)F)c3)[C@@H]2C)CC(C)(C)CC1 [Compound 597, 3′-(2-(((4S,5R)-5-(3,5-bis(trifluoromethyl)phenyl)-4-methyl-2-oxooxazolidin-3-yl)methyl)-4,4-dimethylcyclohex-1-enyl)-2,4′-dimethoxybiphenyl-4-carboxylic acid]"
4,11.6 nM,"COc1cc(C)c(-c2ccc(C(=O)O)cc2)cc1C1=C(CN2C(=O)O[C@H](c3cc(C(F)(F)F)cc(C(F)(F)F)c3)[C@@H]2C)CC(C)(C)CC1 [Compound 620, 5′-(2-(((4S,5R)-5-(3,5-bis(trifluoromethyl)phenyl)-4-methyl-2-oxooxazolidin-3-yl)methyl)-4,4-dimethylcyclohex-1-enyl)-4′-methoxy-2′-methylbiphenyl-4-carboxylic acid]"
5,14.6 nM,"COc1cc(F)c(-c2ccc(C(=O)O)cc2)cc1C1=C(CN2C(=O)O[C@H](c3cc(C(F)(F)F)cc(C(F)(F)F)c3)[C@@H]2C)CC(C)(C)CC1 [Compound 575, 5′-(2-(((4S,5R)-5-(3,5-bis(trifluoromethyl)phenyl)-4-methyl-2-oxooxazolidin-3-yl)methyl)-4,4-dimethylcyclohex-1-enyl)-2′-fluoro-4′-methoxybiphenyl-4-carboxylic acid]"
6,7.5 nM,"C[C@H]1[C@@H](c2cc(C(F)(F)F)cc(C(F)(F)F)c2)OC(=O)N1CC1=C(c2cc(-c3ccc(C(=O)O)cc3C(F)(F)F)ccc2Cl)CCC(C)(C)C1 [Compound 729, 3′-(2-(((4S,5R)-5-(3,5-bis(trifluoromethyl)phenyl)-4-methyl-2-oxooxazolidin-3-yl)methyl)-4,4-dimethylcyclohex-1-enyl)-4′-chloro-2-(trifluoromethyl)biphenyl-4-carboxylic acid]"
7,20.3 nM,"C[C@H]1[C@@H](c2cc(C(F)(F)F)cc(C(F)(F)F)c2)OC(=O)N1CC1=C(c2cc(-c3ccc(C(=O)O)cc3Cl)ccc2F)CCC(C)(C)C1 [Compound 739, 3′-(2-(((4S,5R)-5-(3,5-bis(trifluoromethyl)phenyl)-4-methyl-2-oxooxazolidin-3-yl)methyl)-4,4-dimethylcyclohex-1-enyl)-2-chloro-4′-fluorobiphenyl-4-carboxylic acid]"
8,23.2 nM,"COc1ccc(-c2ccc(C(=O)O)cc2F)cc1C1=C(CN2C(=O)O[C@H](c3cc(C(F)(F)F)cc(C(F)(F)F)c3)[C@@H]2C)CC(C)(C)CC1 [Compound 561, 3′-(2-(((4S,5R)-5-(3,5-bis(trifluoromethyl)phenyl)-4-methyl-2-oxooxazolidin-3-yl)methyl)-4,4-dimethylcyclohex-1-enyl)-2-fluoro-4′-methoxybiphenyl-4-carboxylic acid]"
9,9.6 nM,"C[C@H]1[C@@H](c2cc(C(F)(F)F)cc(C(F)(F)F)c2)OC(=O)N1CC1=C(c2ccc(F)c(-c3ccc(C(=O)O)cc3C(F)(F)F)c2)CCC(C)(C)C1 [Compound 723, 5′-(2-(((4S,5R)-5-(3,5-bis(trifluoromethyl)phenyl)-4-methyl-2-oxooxazolidin-3-yl)methyl)-4,4-dimethylcyclohex-1-enyl)-2′-fluoro-2-(trifluoromethyl)biphenyl-4-carboxylic acid]"
10,11.4 nM,"Cc1cc(C(=O)O)ccc1-c1ccc(Cl)c(C2=C(CN3C(=O)O[C@H](c4cc(C(F)(F)F)cc(C(F)(F)F)c4)[C@@H]3C)CC(C)(C)CC2)c1 [Compound 727, 3′-(2-(((4S,5R)-5-(3,5-bis(trifluoromethyl)phenyl)-4-methyl-2-oxooxazolidin-3-yl)methyl)-4,4-dimethylcyclohex-1-enyl)-4′-chloro-2-methylbiphenyl-4-carboxylic acid]"
